In patent US20010044457A1, “Cancer Treatment” (priority 2000, published 2001):

Test system: pancreatic (MiaPaCa) cancer
Experiment: in vivo pancreatic (MiaPaCa) cancer nude mouse tumor model
Protocol: The control is PEG. Both the control and the active are given once a week to the end. The doses were 500 mg/kg, 750 mg/kg and 1000 mg/kg. The surviving animals average tumor weight in mg is: […]

COc1ccc(C=Nn2cc(-c3ccccc3)nc2N)cc1 [2-Amino-1-(4-methoxybenzyliden)amino-4-phenylimidazole]
Deaths (500 mg/kg once a week, Day 1): 0 | Tumor Weight (surviving animals average) (500 mg/kg once a week, Day 1): 77 mg | Deaths (500 mg/kg once a week, Day 5): 0 | Tumor Weight (surviving animals average) (500 mg/kg once a week, Day 5): 161 mg | Deaths (500 mg/kg once a week, Day 9): 0 | Tumor Weight (surviving animals average) (500 mg/kg once a week, Day 9): 322 mg | Deaths (500 mg/kg once a week, Day 12): 0 | Tumor Weight (surviving animals average) (500 mg/kg once a week, Day 12): 271 mg | Deaths (500 mg/kg once a week, Day 16): 0 | Tumor Weight (surviving animals average) (500 mg/kg once a week, Day 16): 596 mg | Deaths (500 mg/kg once a week, Day 19): 0 | Tumor Weight (surviving animals average) (500 mg/kg once a week, Day 19): 640 mg | Deaths (500 mg/kg once a week, Day 23): 0 | Tumor Weight (surviving animals average) (500 mg/kg once a week, Day 23): 638 mg | Deaths (500 mg/kg once a week, Day 26): 0 | Tumor Weight (surviving animals average) (500 mg/kg once a week, Day 26): 532 mg | efficacy in tumor model (500 mg/kg, 750 mg/kg and 1000 mg/kg once a week, control PEG): dose responsive efficacy | Deaths (750 mg/kg once a week, Day 1): 0 | Tumor Weight (surviving animals average) (750 mg/kg once a week, Day 1): 76 mg | Deaths (750 mg/kg once a week, Day 5): 0 | Tumor Weight (surviving animals average) (750 mg/kg once a week, Day 5): 117 mg | Deaths (750 mg/kg once a week, Day 9): 0 | Tumor Weight (surviving animals average) (750 mg/kg once a week, Day 9): 290 mg | Deaths (750 mg/kg once a week, Day 12): 0 | Tumor Weight (surviving animals average) (750 mg/kg once a week, Day 12): 281 mg | Deaths (750 mg/kg once a week, Day 16): 0 | Tumor Weight (surviving animals average) (750 mg/kg once a week, Day 16): 369 mg | Deaths (750 mg/kg once a week, Day 19): 0 | Tumor Weight (surviving animals average) (750 mg/kg once a week, Day 19): 364 mg | Deaths (750 mg/kg once a week, Day 23): 0 | Tumor Weight (surviving animals average) (750 mg/kg once a week, Day 23): 420 mg | Deaths (750 mg/kg once a week, Day 26): 0 | Tumor Weight (surviving animals average) (750 mg/kg once a week, Day 26): 418 mg | Deaths (1000 mg/kg once a week, Day 1): 0 | Tumor Weight (surviving animals average) (1000 mg/kg once a week, Day 1): 90 mg | Deaths (1000 mg/kg once a week, Day 5): 0 | Tumor Weight (surviving animals average) (1000 mg/kg once a week, Day 5): 90 mg | Deaths (1000 mg/kg once a week, Day 9): 0 | Tumor Weight (surviving animals average) (1000 mg/kg once a week, Day 9): 150 mg | Deaths (1000 mg/kg once a week, Day 12): 0 | Tumor Weight (surviving animals average) (1000 mg/kg once a week, Day 12): 130 mg | Deaths (1000 mg/kg once a week, Day 16): 0 | Tumor Weight (surviving animals average) (1000 mg/kg once a week, Day 16): 120 mg | Deaths (1000 mg/kg once a week, Day 19): 1 | Tumor Weight (surviving animals average) (1000 mg/kg once a week, Day 19): 110 mg | Deaths (1000 mg/kg once a week, Day 23): 0 | Tumor Weight (surviving animals average) (1000 mg/kg once a week, Day 23): 198 mg | Deaths (1000 mg/kg once a week, Day 26): 0 | Tumor Weight (surviving animals average) (1000 mg/kg once a week, Day 26): 192 mg
